Reference: patent publication EP0497314A1, “Use of azapirones in attention deficit hyperactivity disorder” (Bristol-Myers Squibb Company, priority 1991, dated 1992)
Counter-ions that a name gives are not always drawn. Marks after values point to notes of the source that are not given here.

Legend:
[1] = system: fronto-occipital cortex of the cat; assay: Quantitative EEG, fronto-occipital cat cortex, subcutaneous administration; format: in vivo, cats; settings: for group percent change in electrical energy from pre-drug control, Δ band / mean change ± S.E. in electrical energy from pre-drug control, Δ band / group percent change in electrical energy from pre-drug control, α band / mean change ± S.E. in electrical energy from pre-drug control, α band / group percent change in electrical energy from pre-drug control, β band / mean change ± S.E. in electrical energy from pre-drug control, β band / group percent change in electrical energy from pre-drug control, γ band / mean change ± S.E. in electrical energy from pre-drug control, γ band / group percent change in electrical energy from pre-drug control, θ band / mean change ± S.E. in electrical energy from pre-drug control, θ band: fronto-occipital cat cortex; for group percent change in electrical energy from pre-drug control, Δ band / mean change ± S.E. in electrical energy from pre-drug control, Δ band: Δ = 0.5-3.5 Hz; for group percent change in electrical energy from pre-drug control, α band / mean change ± S.E. in electrical energy from pre-drug control, α band: α= 7-13 Hz; for group percent change in electrical energy from pre-drug control, β band / mean change ± S.E. in electrical energy from pre-drug control, β band: β= 13-25 Hz; for group percent change in electrical energy from pre-drug control, γ band / mean change ± S.E. in electrical energy from pre-drug control, γ band: γ= 25-40 Hz; for group percent change in electrical energy from pre-drug control, θ band / mean change ± S.E. in electrical energy from pre-drug control, θ band: θ= 3.5-7.0 Hz
From the text: This unique combination of activity may render buspirone useful in the treatment of childhood hyperkinesis which has been reported to respond to both selected phenothiazine and stimulant drugs. • (b) Adult mongrel female cats weighing 2.5-4.0 kg were implanted with EEG recording electrodes. Recording sites were as follows: fronto-occipital cortex, basal amygdala and ventral hippocampus.
Animals were individually held in canvas feline restraining bags for EEG recording. The EEG of each brain area was recorded on a separate channel. The instrumentation filtered each channel of EEG and analog data into five distinct frequency bands: Δ=0.5-3.5 Hz, ϑ=3.5-7.0 Hz, α=7-13 Hz, β=13-25 Hz and γ=25-40 Hz. The EEG analyzer then integrated the filtered waveforms and sent pulses to an associated computer at a rate proportional to the electrical energy of each band. Data collecting procedures were essentially the same as reported in Example 1. However, groups of six animals each were used and all drugs were administered subcutaneously in saline solution as their respective salts, but all dosages were calculated as the free base. Recording was started 30 minutes after injection to insure adequate drug absorption for peak activity.
Drug-induced EEG changes were determined by comparing the post-treatment data to the pre-treatment control in the same animal. Statistical analysis was performed on change from control, in instrument counts, using multiple Student-t-paired-comparison test with P≦0.05 (Table 2). However, for clarity data are also presented as percent change from control (Figures 3, 4 and 5).
The data in Table 2 are drug-induced changes resulting from the minimum and higher doses of each compound required to elicit the EEG profile characteristic of that particular drug.

rabbit cortex = assay: Quantitative EEG, rabbit cortex, intravenous administration; format: in vivo, rabbits; settings: for group percent change in electrical energy from pre-drug control, Δ band / mean change ± S.E. in electrical energy from pre-drug control, Δ band: Δ = 0.5-3.5 Hz; for group percent change in electrical energy from pre-drug control, α band / mean change ± S.E. in electrical energy from pre-drug control, α band: α= 7-13 Hz; for group percent change in electrical energy from pre-drug control, β band / mean change ± S.E. in electrical energy from pre-drug control, β band: β= 13-25 Hz; for group percent change in electrical energy from pre-drug control, γ band / mean change ± S.E. in electrical energy from pre-drug control, γ band: γ= 25-40 Hz; for group percent change in electrical energy from pre-drug control, θ band / mean change ± S.E. in electrical energy from pre-drug control, θ band: θ= 3.5-7.0 Hz
Description: At least 2 weeks were allowed for recovery before beginning experimentation.
Groups of four animals each were individually restrained and connected to an EEG amplifier and frequency analyzer. The EEG of each animal was recorded on a separate channel. The instrumentation filtered each channel of EEG analog data into five distinct frequency bands: Δ=0.5-3.5 Hz, ϑ=3.5-7.0 Hz, α=7-13 Hz, β=13-25 Hz and γ=25-40 Hz. The EEG analyzer then integrated the filtered waveforms and sent pulses to an associated computer at a rate proportional to the electrical energy of each band. Thus, one computer print-out provided a cortical EEG profile for the entire group of four rabbits.
Data from a one-hour recording period were collected in four 15-minute periods, which provided additional information concerning both onset and time of peak effect of drug activity. However, in this report only the mean activity of the four data collection periods was considered since onset of drug activity was immediate and duration of action was at least one hour for all drugs studied. Drug-induced EEG changes were determined by comparing the post-treatment print-out to the pretreatment control in the same animal and statistical analysis was performed on change from control, in counts, using multiple Student-t paired-comparison tests with p≦0.05 (Table 1). However, for clarity data are also presented as percent change from control (Figures 1 and 2).
All drugs were administered intravenously in saline solution as their respective salts and all dosage calculations were based on the free base. Recording was started immediately after injection and animals were not used more often than once per week. Initial doses were reduced geometrically until a no-effect dose was determined for each drug. However, only the "no-effect" data and the data generated from the next higher dose are presented in this report since the shape of the EEG profile is not dose-related, as opposed to the magnitude of the response which is dose-related.

[2] = rabbit cortex, 0.125 mg/kg free base i.v.
[3] = rabbit cortex, 0.25 mg/kg free base i.v.

CSc1ccc2c(c1)N(CCC1CCCCN1C)c1ccccc1S2 (centres unmarked) [Thioridazine HCl, thioridazine]
minimal effective dose ([1]; Felis catus, sc, fronto-occipital cat cortex EEG, dose of free base, read-out: the minimum dose required to produce the EEG profile characteristic of that particular drug): 1 mg/kg | the no-effect dose ([1]; fronto-occipital cat cortex EEG, dose of free base): 0.5† mg/kg, s.c. | group percent change in electrical energy from pre-drug control, Δ band ([1]; 0.5 mg/kg free base s.c.): +5% | mean change ± S.E. in electrical energy from pre-drug control, Δ band ([1]; 0.5 mg/kg free base s.c.): +11 ± 21 instrument counts | group percent change in electrical energy from pre-drug control, Δ band ([1]; 1.0 mg/kg free base s.c.): +19% | mean change ± S.E. in electrical energy from pre-drug control, Δ band ([1]; 1.0 mg/kg free base s.c.): +38 ± 11 instrument counts | group percent change in electrical energy from pre-drug control, Δ band ([1]; 8.0 mg/kg free base s.c.): +28% | mean change ± S.E. in electrical energy from pre-drug control, Δ band ([1]; 8.0 mg/kg free base s.c.): +54 ± 8 instrument counts | group percent change in electrical energy from pre-drug control, α band ([1]; 0.5 mg/kg free base s.c.): 0% | mean change ± S.E. in electrical energy from pre-drug control, α band ([1]; 0.5 mg/kg free base s.c.): 0 ± 7 instrument counts | group percent change in electrical energy from pre-drug control, α band ([1]; 1.0 mg/kg free base s.c.): +18% | mean change ± S.E. in electrical energy from pre-drug control, α band ([1]; 1.0 mg/kg free base s.c.): +20 ± 5 instrument counts | group percent change in electrical energy from pre-drug control, α band ([1]; 8.0 mg/kg free base s.c.): +26% | mean change ± S.E. in electrical energy from pre-drug control, α band ([1]; 8.0 mg/kg free base s.c.): +25 ± 6 instrument counts | group percent change in electrical energy from pre-drug control, β band ([1]; 0.5 mg/kg free base s.c.): -3% | mean change ± S.E. in electrical energy from pre-drug control, β band ([1]; 0.5 mg/kg free base s.c.): -3 ± 3 instrument counts | group percent change in electrical energy from pre-drug control, β band ([1]; 1.0 mg/kg free base s.c.): +3% | mean change ± S.E. in electrical energy from pre-drug control, β band ([1]; 1.0 mg/kg free base s.c.): +3 ± 4 instrument counts | group percent change in electrical energy from pre-drug control, β band ([1]; 8.0 mg/kg free base s.c.): -2% | mean change ± S.E. in electrical energy from pre-drug control, β band ([1]; 8.0 mg/kg free base s.c.): -3 ± 4 instrument counts | group percent change in electrical energy from pre-drug control, γ band ([1]; 0.5 mg/kg free base s.c.): -5% | mean change ± S.E. in electrical energy from pre-drug control, γ band ([1]; 0.5 mg/kg free base s.c.): -3 ± 3 instrument counts | group percent change in electrical energy from pre-drug control, γ band ([1]; 1.0 mg/kg free base s.c.): -11% | mean change ± S.E. in electrical energy from pre-drug control, γ band ([1]; 1.0 mg/kg free base s.c.): -9 ± 4 instrument counts | group percent change in electrical energy from pre-drug control, γ band ([1]; 8.0 mg/kg free base s.c.): -15% | mean change ± S.E. in electrical energy from pre-drug control, γ band ([1]; 8.0 mg/kg free base s.c.): -12 ± 3 instrument counts | group percent change in electrical energy from pre-drug control, θ band ([1]; 0.5 mg/kg free base s.c.): -1% | mean change ± S.E. in electrical energy from pre-drug control, θ band ([1]; 0.5 mg/kg free base s.c.): -2 ± 8 instrument counts | group percent change in electrical energy from pre-drug control, θ band ([1]; 1.0 mg/kg free base s.c.): +24% | mean change ± S.E. in electrical energy from pre-drug control, θ band ([1]; 1.0 mg/kg free base s.c.): +29 ± 5 instrument counts | group percent change in electrical energy from pre-drug control, θ band ([1]; 8.0 mg/kg free base s.c.): +30% | mean change ± S.E. in electrical energy from pre-drug control, θ band ([1]; 8.0 mg/kg free base s.c.): +40 ± 6 instrument counts | minimal effective dose (rabbit cortex; Oryctolagus cuniculus, iv, rabbit cortex EEG, dose of free base, read-out: the minimum dose required to produce the EEG profile characteristic of that particular drug): 0.25 mg/kg | relative potency by comparing minimal doses required to elicit EEG profiles (rabbit cortex; rabbit cortex EEG, i.v.): approximately twice as potent as buspirone | the no-effect dose (rabbit cortex; rabbit cortex EEG, dose of free base): 0.125† mg/kg, i.v. | EEG profile (rabbit cortex; rabbit cortex, i.v.): completely different from that produced by stimulant drugs | group percent change in electrical energy from pre-drug control, Δ band (rabbit cortex; [2]): +3% | mean change ± S.E. in electrical energy from pre-drug control, Δ band (rabbit cortex; [2]): +11 ± 23 instrument counts | group percent change in electrical energy from pre-drug control, Δ band (rabbit cortex; [3]): +69% | mean change ± S.E. in electrical energy from pre-drug control, Δ band (rabbit cortex; [3]): +143 ± 11 instrument counts | group percent change in electrical energy from pre-drug control, α band (rabbit cortex; [2]): 0% | mean change ± S.E. in electrical energy from pre-drug control, α band (rabbit cortex; [2]): 0 ± 6 instrument counts | group percent change in electrical energy from pre-drug control, α band (rabbit cortex; [3]): +34% | mean change ± S.E. in electrical energy from pre-drug control, α band (rabbit cortex; [3]): +54 ± 2 instrument counts | group percent change in electrical energy from pre-drug control, β band (rabbit cortex; [2]): +3% | mean change ± S.E. in electrical energy from pre-drug control, β band (rabbit cortex; [2]): +5 ± 4 instrument counts | group percent change in electrical energy from pre-drug control, β band (rabbit cortex; [3]): +35% | mean change ± S.E. in electrical energy from pre-drug control, β band (rabbit cortex; [3]): +39 ± 4 instrument counts | group percent change in electrical energy from pre-drug control, γ band (rabbit cortex; [2]): +1% | mean change ± S.E. in electrical energy from pre-drug control, γ band (rabbit cortex; [2]): +1 ± 1 instrument counts | group percent change in electrical energy from pre-drug control, γ band (rabbit cortex; [3]): +5% | mean change ± S.E. in electrical energy from pre-drug control, γ band (rabbit cortex; [3]): +5 ± 1 instrument counts | group percent change in electrical energy from pre-drug control, θ band (rabbit cortex; [2]): -5% | mean change ± S.E. in electrical energy from pre-drug control, θ band (rabbit cortex; [2]): -13 ± 8 instrument counts | group percent change in electrical energy from pre-drug control, θ band (rabbit cortex; [3]): +21% | mean change ± S.E. in electrical energy from pre-drug control, θ band (rabbit cortex; [3]): +43 ± 4 instrument counts
